Assay results: PMC12270681 (The Journal of Biological Chemistry, 2025)
Several values for one entry are separate records, joined by “and”; a condition that tells them apart may be missing. Equal values may be shown once.

Key:
[1] = molecular target: Dh-cParM1, chromosome-encoded ParM of the Desulfitobacterium hafniense Y51 Dh-cParMR-1 cassette (Desulfitobacterium hafniense Y51); experiment: co-sedimentation
Cb-cParM [2] = molecular target: T1, Cb-cParM (Clostridium botulinum, UniProt A0A9Y2YAC8); details: polymerised with 3 mM GTP, 30 min, class 1; Mg2+; pH 7.5; 25 °C; nucleotide hydrolysed to GDP in the filament
T1 construct: gene EXN02_10840

Cb-cParM [3] = molecular target: T1, Cb-cParM; details: polymerised with 3 mM ATP, 30 min; Mg2+; pH 7.5; 25 °C; nucleotide hydrolysed to ADP in the filament
Dh-cParM1 [4] = molecular target: T2, Dh-cParM1 (Desulfitobacterium hafniense, UniProt Q24VP4); experiment: cryo-EM structure of filament ([…] A); assay type: binding; parameters: gene DSY2109; synthetic gene, N- or C-side 8xHis tag with HRV 3C site, tag cut; E. coli BL21(DE3); polymerises into helical filaments; details: polymerised with 5 mM ATP; 40 mM HEPES pH 7.5, 400 mM KCl, 1 mM MgCl2; nucleotide state not unambiguous, ADP fits better
T2 sequence (Q24VP4 1-369): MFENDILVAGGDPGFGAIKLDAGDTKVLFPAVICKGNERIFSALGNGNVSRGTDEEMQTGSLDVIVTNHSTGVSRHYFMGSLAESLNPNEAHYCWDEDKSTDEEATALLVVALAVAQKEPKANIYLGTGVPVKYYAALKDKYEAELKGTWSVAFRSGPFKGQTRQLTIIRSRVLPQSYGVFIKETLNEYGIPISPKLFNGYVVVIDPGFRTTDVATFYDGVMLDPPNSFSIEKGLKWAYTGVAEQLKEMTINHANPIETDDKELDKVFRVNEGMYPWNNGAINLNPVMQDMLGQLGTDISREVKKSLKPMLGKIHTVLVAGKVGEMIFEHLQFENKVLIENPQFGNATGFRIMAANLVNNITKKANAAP

Dh-cParM1 [5] = molecular target: T2, Dh-cParM1; parameters: gene DSY2109; details: 5 mM nucleotide (sedimentation); pH 7.5, Mg2+, 24 °C
Cb-cParM [6] = molecular target: T1, Cb-cParM; details: class 2 (30 min) and 1 min with 3 mM GTP; Mg2+; pH 7.5; 25 °C; low resolution, nucleotide likely GTP or GDP-Pi
Dh-cParM1 [7] = molecular target: T2, Dh-cParM1; experiment: polymerisation by sedimentation, EM; assay type: binding; parameters: gene DSY2109; synthetic gene, N- or C-side 8xHis tag with HRV 3C site, tag cut; E. coli BL21(DE3); polymerises into helical filaments; details: 5 mM nucleotide (sedimentation); pH 7.5, Mg2+, 24 °C

T1 sequence (A0A9Y2YAC8 1-285): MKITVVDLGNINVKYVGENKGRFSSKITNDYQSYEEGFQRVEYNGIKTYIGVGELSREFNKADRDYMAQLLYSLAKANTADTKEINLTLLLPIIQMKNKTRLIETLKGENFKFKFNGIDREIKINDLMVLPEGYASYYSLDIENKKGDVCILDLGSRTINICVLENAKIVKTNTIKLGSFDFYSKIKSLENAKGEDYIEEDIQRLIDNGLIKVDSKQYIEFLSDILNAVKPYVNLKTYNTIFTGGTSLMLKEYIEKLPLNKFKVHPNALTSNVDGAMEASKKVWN

## Dh-cParM1, chromosome-encoded ParM of the Desulfitobacterium hafniense Y51 Dh-cParMR-1 cassette (natural protein)
[1]
  residual concentration in the supernatants (compared with a critical concentration): 4 µM and 5 µM

## Nc1nc2c(ncn2[C@@H]2O[C@H](COP(=O)(O)OP(=O)(O)O)[C@@H](O)[C@H]2O)c(=O)[nH]1 [GDP]
Cb-cParM [2]
  cryo-EM structure of filament (3.5 A): indicating that the bound nucleotides had been hydrolyzed to ADP and GDP, respectively

## Nc1ncnc2c1ncn2[C@@H]1O[C@H](COP(=O)(O)OP(=O)(O)O)[C@@H](O)[C@H]1O [ADP]
Cb-cParM [3]
  cryo-EM structure of filament (3.9 A): indicating that the bound nucleotides had been hydrolyzed to ADP and GDP, respectively
Dh-cParM1 [4]
  cryo-EM structure of filament (4.0 A): ADP appears to fit better into the cryoEM density map than ATP

## Nc1ncnc2c1ncn2[C@@H]1O[C@H](COP(=O)(O)OP(=O)(O)OP(=O)(O)O)[C@@H](O)[C@H]1O [ATP]
Dh-cParM1 [5]
  polymerisation by light scattering, sedimentation, EM: Dh-cParM1 polymerization induced by ATP was followed by light scattering

## Nc1nc2c(ncn2[C@@H]2O[C@H](COP(=O)(O)OP(=O)(O)OP(=O)(O)O)[C@@H](O)[C@H]2O)c(=O)[nH]1 [GTP]
Cb-cParM [6]
  cryo-EM structure of filament (6.5 A and 8.6 A); Pi release also measured: suggesting that they were in the state before the phosphate release
Dh-cParM1 [7]
  polymerisation by sedimentation, EM: Filaments were induced by the addition of ATP, GTP, and non-hydrolysable nucleotides
